Experimental data reported in US9648880B2, “Antifungal agents and uses thereof” (University of Massachusetts, priority 2012, dated 2017).

How the values were obtained:
[1] = system: C. albicans SC5314-GFP biofilm; assay: biofilm formation on silicone elastomers; assay type: cell-based, Candida albicans; details: for biofilm formation, visual inspection: silicone mesh
Method: FIGS. 5A-5C. Effect of small molecules on biofilm formation in vitro. FIG. 5A is a series of photographs showing biofilm formation on silicone elastomers. Biofilm assay was performed with SC5314-GFP and edt1^Δ/Δ-GFP and photographed after 60 hrs. Indicated compounds were added at 50 μM. Turbid medium indicates planktonic cells unattached to silicone elastomers when biofilm formation is inhibited. Clear medium with the cell attached to the silicone elastomer indicate establishment of functional biofilm. Each treatment was done in triplicate. FIG. 5B is a graph showing quantitation of turbidity of medium. Media was removed from the wells, vortexed vigorously and the OD at 600 nm was measured in a spectrophotometer. FIG. 5C is a graph showing quantitation of dry weight of biofilm. Dry weight in mg of air-dried silicone elastomers.
Fungal biofilm formation on implanted medical devices is a serious medical problem because these biofilms can lead to life-threatening systemic infections. An established in vitro assay to study device colonization makes use of silicone mesh as a surrogate surface (Nobile, 2006). We tested how the compounds that affected polystyrene adhesion (FIG. 1) would affect biofilm formation by visual inspection of the biofilms formed, by measuring the optical density of the supernatant liquid cultures, and by measuring their dry weights. […] Therefore, compounds #4 and Q1 were effective inhibitors of both hyphal morphogenesis (FIG. 4) and biofilm formation on silicone mesh (FIG. 5).
We adapted a published method (Nobile, 2006, supra). Autoclaved, pre-weighed silicone mesh squares (Bentec, Catalog Number PR72034-04N) were incubated overnight at 37° C. with undiluted bovine serum. Following washing with PBS, the squares were transferred to 12-well plates and incubated with 0.5 OD/ml SC5314-GFP cells in Spider medium (with or without drugs as indicated), for 90 min at 37° C., shaking at 200 rpm. Squares were washed in PBS and transferred to new 12-well plates containing fresh Spider medium with fresh drugs and incubated for 60 hrs in a 37° C. shaker at 200 rpm. The plates were then photographed, the liquid media were collected for A600 nm measurements, and the dry weights of the bound biofilms were measured following drying of the silicone squares in a chemical hood.

[2] = system: C. albicans hyphae formation; assay: filamentation assay (hyphal morphogenesis); assay type: cell-based, Candida albicans; details: for inhibition of hyphal formation and induction of RFP: 12.5 μM, Spider media 16 hours, HWP1-RFP reporter; for formation of hyphae: Spider media, HWP1-RFP reporter (Example 14)
From the text: Because the ability to interconvert between yeast and hyphal morphologies is usually correlated with pathogenicity (Finkel, 2010), we explored this observation in more detail. First, we assessed the effect of our compounds on the induction of hyphae by “Spider” media (Chauhan, 2009). For this experiment, we used a strain that contains the hyphal-specific HWP1 promoter to the Red Fluorescent Protein (RFP) open reading frame (Ganguly, 2011), which provides a molecular reporter for hyphae formation that we used in addition to visual examination of cell morphology. We initially tested each of the compounds that inhibit adhesion to polystyrene (FIG. 1B), as well as compounds #9, Q1 and Q2 (FIG. 3A), at concentration of 12.5 μM. […] Compounds Q1 and Q2 share a “Scaffold 1” backbone with compounds #4 and #9, but contain a quinoline group (FIG. 3A). Therefore, the compounds with a quinoline group can inhibit hyphae formation, but not adhesion to polystyrene or human cells (FIG. 3). […] Additionally, multiple chemical backbones are able to inhibit hyphae formation, because compound #12 has a “Scaffold 2” backbone (Table 2). To better discriminate the inhibitory compounds, we tested #4, 12 and Q1 at lower concentrations. […] Furthermore, as in the polystyrene adhesion assay (FIG. 8), compound #4 is effective at inhibiting hyphae formation at concentrations >2.5 μM.
Overnight cultures of SC5314 or SGH584 were pregrown in uridine-supplemented SC media at 30° C. to an OD600>13 and diluted 1:10 into prewarmed Spider medium (1% Peptone (Difco), 1% Mannitol (Sigma) and 0.2% K2HPO4 (Sigma) (Chauhan, 2009) in glass tubes and grown for 16 hrs at 37° C. shaking at 200 rpm in the presence or absence of drugs as indicated. DIC and fluorescence images were acquired using a Zeiss Axiovert 200 inverted microscope equipped with a Qicam 12-bit Fast 1394 digital CCD camera (Qimaging). Image acquisition was carried out using Openlab 5 software (Improvison).
Because the ability to interconvert between yeast and hyphal morphologies is usually correlated with pathogenicity, we explored this in more detail, examining induction of hyphae upon carbon starvation (using Spider media). We used a strain that contains the Red Fluorescent Protein (RFP) open reading frame driven by the hyphal-specific HWP1 promoter (Ganguly et al., Eukaryotic Cell 10:1448, 2011), which provides a molecular reporter for hyphae formation in addition to cell morphology. […] Therefore, the shared backbone of these compounds correlates with inhibition of multiple activities.
Hyphal morphogenesis is induced by multiple stimuli that act via multiple signal transduction pathways and is mediated by a complex transcriptional network. […] We detected morphological difference between control and compound #4-treated cultures as early as 60 minutes in 10% serum, and 90 minutes in Spider media.

C. albicans SC5314 = assay: alamarBlue-based polystyrene adhesion assay; assay type: cell-based, Candida albicans
From the text: We prioritized the candidate compounds by testing the dose-dependence of their effects. Because of the laborious washing required to remove background crystal violet dye staining, we developed adhesion assays using alternative detection reagents. Previous experiments screens have used the vital dye alamarBlue to measure Candida viability (Lafleur, J. Antimicrob Chemother. 66: 820-826, 2011; Youngsaye supra), so we tested this reagent as a way to measure cells remaining adhered after washing. […] The majority of the reordered compounds were effective at reducing Candida adhesion at 50 μM, the concentration originally tested during the screen. […] Although compounds that were still effective at 25 μM were less generally less so at 7.5 μM (FIG. 1C), many candidates still reduced adhesion by >50% at this lower concentration.
Overnight cultures of SC5314 and edt1^−/− cells were grown and plated onto Immulon 2HB 96-well microtiter plates and treated with small molecules as described above. Following incubations, media was decanted and plates were washed twice with 100 μl/well PBS. alamarBlue (Life Technologies) was resuspended to a final concentration of 5% in RPMI buffered with 0.165 M MOPS and then 100 μl was added to each well, followed by further incubation for 2 hours at 37° C. Fluorescence signals at 555Ex/585Em were read using a SpectraMax M5 Plate reader (Molecular Devices).

[3] = system: C. elegans infected with C. albicans; assay: C. elegans pathogenesis assay; assay type: in vivo, Caenorhabditis elegans; details: 12.5 μM
Method: We therefore tested whether compound #4 can alter fungal infections in two in vivo settings. First, we performed pathogenesis assays in which nematodes (Caenorhabditis elegans) are infected with C. albicans, resulting in killing of the nematode host (Jain, 2009; Okoli, 2009). We used this assay to test whether compound #4 might have a protective effect, exposing C. elegans to Candida albicans and either DMSO vehicle, the commonly used antifungal drug fluconazole at 12.5 μM, or compound #4 at the same concentration. […] Therefore, consistent with its in vitro activities, compound #4 functions as an antifungal agent in this model infection system.
Three worms in the L3/L4 stage were transferred to each of two NGM agar plates containing E. coli OP50 and grown at 20° C. for four days. On the day of the experiment, worms were washed off the plates with M9 buffer and centrifuged at 900×g for 2 min. The supernatant was removed, and the worms were then resuspended in a bleach solution (1:4 dilution of commercial bleach (5.25%) diluted in 0.25 M sodium hydroxide). The worm suspension was mixed gently by inversion for 3 min, and centrifuged for 2 min at 2,000×g. The pellet containing the eggs was washed with M9 buffer and centrifuged at 2,000×g for 2 min and then resuspended in 500 μl M9 buffer. […]

Compound	biofilm formation, visual inspection ([1]; 50 μM, 60 hrs)	inhibition of hyphal formation and induction of RFP [2]	formation of hyphae [2]	further results
Cc1cc(C)n(CC(O)Cn2c3ccc(Cl)cc3c3cc(Cl)ccc32)c(=O)n1 (centres unmarked) [Compound 21]	most effectively kept the cells dispersed in the media rather than on the mesh	–	–	media density (OD 600 nm) ([1]; 50 μM, 60 hrs): more modest than for the other compounds tested
Cc1ccc(C(=O)N2CCN(c3ccc(Cl)cc3)CC2)cc1C [Compound 7]	most effectively kept the cells dispersed in the media rather than on the mesh	did not block hyphal formation as efficiently	–	–
O=C(c1csc2ccccc12)N1CCN(c2ccc(Cl)c(Cl)c2)CC1 [Compound 3]	–	did not block hyphal formation as efficiently	–	–
COc1ccc(C(=O)Nc2cccc(Cl)c2)cc1Br [Compound 12]	most effectively kept the cells dispersed in the media rather than on the mesh	most potently inhibited hyphal formation and induction of RFP	–	hyphae formation induced by Spider media ([2]; 5 μM): A few hyphae were observed; hyphae formation induced by Spider media ([2]; 10 μM): completely blocked the hyphae formation; synergy on adhesion upon combining compound #4 and compound #12 (C. albicans SC5314; #4 1.5 μM with #12 4 and 6 μM): did not further reduce adhesion; effect on adhesion of compound alone (C. albicans SC5314; compound #4 1.5 μM, compound #12 4 and 6 μM): partial effects
COc1ccc(N2CCN(C(=O)CCCN3C(=O)c4cccc5cccc(c45)C3=O)CC2)cc1 [Compound 27]	–	–	blocked formation of hyphae	biofilm formation on silicone mesh ([1]; Example 14): effective inhibitors of both hyphal morphogenesis and biofilm formation on silicone mesh
O=C(NCCC12CC3CC(CC(C3)C1)C2)c1ccc(S(=O)(=O)N2CCOCC2)cc1 [Compound 26]	–	–	blocked formation of hyphae	–
OC(Cn1cncn1)(Cn1cncn1)c1ccc(F)cc1F [fluconazole, reference compound]	–	–	–	lifespan of infected worms [3]: increased the lifespan of the infected worms
CCOc1ccc(NC(=O)c2c(NC(=O)CNCCc3ccccc3)sc3c2CCC3)cc1 [Compound 14]	–	–	blocked formation of hyphae	–
Cc1ccc(N2CCN(C(=O)c3ccccc3)CC2)cc1Cl [Compound 8]	–	did not block hyphal formation as efficiently	–	–
